Earlier results, collected in US20190161549A1, “COMBINATION THERAPY WITH A MEK INHIBITOR, A PD-1 AXIS INHIBITOR, AND A VEGF INHIBITOR” (Genentech, Inc., priority 2016, published 2019).
Read-outs that look alike come from different tables or passages of the source.

Experiments:
[1] = dose range 0.05 mg/kg (approximately 3.5 mg for 70 kg adult) to 80 mg
[2] = with or without high-fat meal, versus cobimetinib alone fasted
[3] = test system: human tumor xenograft models
human tumor cell lines = settings: through inhibition of MEK1 and MEK2
cancer patients = settings: 14 CRC patients
[4] = not given; remark: listed apart in the source

| dose proportionality of pharmacokinetics [1] | effect of proton pump inhibitor rabeprazole on pharmacokinetics [2] | Molecule | ERK phosphorylation in xenograft tumor models [3] | proliferation of a variety of human tumor cell lines (human tumor cell lines) | response in colorectal cancer (CRC) patients (cancer patients) | Kaplan-Meier estimated overall 24-week progression-free survival (PFS) rate (Study PCD4989g, 95% CI: 12%, 53%) [%] | anti-tumor activity (across doses from 1 to 20 mg/kg) | exposure of fixed dose 800 mg q2w versus 1200 mg q3w ([4]; 800 mg every two weeks (equivalent to 10 mg/kg q2w)) | dose proportionality of pharmacokinetics ([4]; doses ≥1 mg/kg every three weeks (q3w)) |
| --- | --- | --- | --- | --- | --- | --- | --- | --- | --- |
| linear pharmacokinetics | minimal effect | O=C(c1ccc(F)c(F)c1Nc1ccc(I)cc1F)N1CC(O)([C@@H]2CCCCN2)C1 [cobimetinib, (S)[3,4-Difluoro-2-(2-fluoro-4-iodophenylamino)phenyl][3-hydroxy-3-(piperidin-2-yl]azetidin-1-yl) methanone] | inhibits ERK phosphorylation | inhibits proliferation | all patients experienced progressive disease |  |  |  |  |
|  |  | atezolizumab: anti-PD-L1 antibody, CAS Registry Number: 1422185-06-5 |  |  |  | 33 | has been observed | equivalent exposure | linear |
